Reference: ChEMBL document CHEMBL1140081 (J Med Chem, 2008)

Columns and labels:
[1] = Metabolic stability in iv dosed Sprague-Dawley rat bile assessed as drug recovery; type: ADME, organism-based; details: read-out: Drug uptake
[2] = Metabolic stability in iv dosed dog urine assessed as drug recovery after 0 to 24 hrs; type: ADME, organism-based, Canis lupus familiaris; details: read-out: Drug uptake
[3] = Metabolic stability in iv dosed Sprague-Dawley rat urine assessed as drug recovery; type: ADME, organism-based; details: read-out: Drug uptake
[4] = Metabolic stability in iv dosed dog urine assessed as drug recovery; type: ADME, organism-based, Canis lupus familiaris; details: read-out: Drug uptake
Liver microsomes [5] = assay: Metabolic stability in Sprague-Dawley rat liver microsomes; type: ADME, Microsome
[6] = Metabolic stability in rhesus monkey liver microsomes; type: ADME, Macaca mulatta, Microsome
[7] = Metabolic stability in iv dosed Sprague-Dawley rat urine assessed as raltegravir-glucuronide recovery; type: ADME, organism-based; details: in vivo
[8] = Metabolic stability in iv dosed Sprague-Dawley rat bile assessed as raltegravir-glucuronide recovery; type: ADME, organism-based; details: in vivo
[9] = Metabolic stability in dog liver microsomes; type: ADME, Canis lupus familiaris, Microsome
Liver microsomes [10] = assay: Metabolic stability in human liver microsomes; type: ADME, Microsome
[11] = Metabolic stability in iv dosed dog urine assessed as raltegravir-glucuronide recovery; type: ADME, organism-based, Canis lupus familiaris; details: in vivo
[12] = Metabolic stability in Sprague-Dawley rat bile; type: ADME
[13] = Metabolic stability in po dosed dog bile; type: ADME, organism-based, Canis lupus familiaris; details: in vivo

Row | SMILES | dose excreted [1] | dose excreted [2] | dose excreted [3] | dose excreted [4] | Stability (Liver microsomes [5]) | Stability [6] | Drug uptake [7] | Drug uptake [8] | Stability [9] | Stability (Liver microsomes [10]) | Drug uptake [11] | Activity [12] | Activity [13]
1 | Cc1nnc(C(=O)NC(C)(C)c2nc(C(=O)NCc3ccc([19F])cc3)c(O)c(=O)n2C)o1 | 10% | 30% | 10% | 65% | 49 mL/day/kg | 51.8 mL/day/kg | 90% | 90% | 2.9 mL/day/kg | 13 mL/day/kg | 35% |  | 
2 | CN(C)C(=O)C(=O)NC(C)(C)c1nc(C(=O)NCc2ccc([19F])cc2)c(O)c(=O)n1C |  |  |  |  | 28.8 mL/day/kg | 66.2 mL/day/kg |  |  | 4.3 mL/day/kg | 12 mL/day/kg |  | 5% | 13%
